Experimental data published in patent US20240350647A1, “STING SENSITIZING AGENTS” (STipe Therapeutics ApS, priority 2023, published 2024).
“Also recorded” adds a separate entry of the source. Where a SMILES comes first, the peptide text is derived from it. Bridges are numbered along the chain shown (N, C = ends). [ ]: non-standard residue; d: D form. The star is where a group is joined. C16 diacid = O=C(O)CCCCCCCCCCCCCCC(=O)*; AEEA = NCCOCCOCC(=O)O

Legend:
[1] = In vitro metabolic stability in fresh blood; format: in vitro ADME; details: 37° C.; mouse, rat and human blood
Protocol: Fresh blood from mouse (CD-1) and rat (Wistar) was collected from lab animals. Human blood was collected from healthy donors at local hospital or acquired from commercial vendor (BioIVT). Blood from non-human primates (Cynomolgus macaque) was acquired from commercial vendor (BioTVT).
For mouse, rat and human blood, 5.0 μg/mL of tested agent (except Agent 1 in human blood) was diluted from stock solution in DMSO to a final DMSO concentration of 0.5% and incubated in 1000 μL of blood at 37° C., in duplicate. At 0, 5, 15, 30, and 60 minutes, 180 μL was sampled and centrifuged at 2000 g for 1 min, 80 μL supernatant was taken and diluted 1:1 with water followed by precipitation with acetonitrile containing 5% TFA (internal standard 100 nM leucine enkephalin+Glu1 fibrinopeptide B). The obtained supernatant 60 μL was further diluted with 30 μL 20% DMSO in ultra-pure water and submitted for immediate analysis by LC-MS/MS. The controls were 1 μM propantheline bromide (mouse, human) or 1 μM enalapril (rat).
Incubation of Agent 1 in blood from human and monkey was performed in a similar manner. A 25 μM solution of Agent 1 was prepared with 5% DMSO and 22.5% methanol in water. […]
The peak areas were determined against a calibration curve and the T0 sample was set to 100%. The disappearance rate (k) was calculated and the half-life for each incubation was determined (t½=ln 2/k).

CD4+ T cells = test: Dendritic Cell-T cell (DC-T) proliferation assay (ProImmune); details: 22 donors; Percentage Stimulation above Background ≥0.5%, SEM=2; peptides 0.34 μM
Text: A panel of peripheral blood mononuclear cell (PBMC) samples from healthy human donors was selected from the ProImmune Ltd (UK) cell bank. Each PBMC sample was HLA (Human Leukocyte Antigen)-typed and stored in liquid nitrogen (vapor-phase) prior to use. The panel was selected so that HLA class II alleles known to be highly expressed in the global population were well represented (data not shown). Donors were predominantly selected by DRB1 allele expression.
A Dendritic Cell-T cell (DC-T) proliferation assay (ProImmune Ltd) was used to identify the presence or potential T cell epitopes within the peptides. Adherent donor PBMCs were cultured with appropriate growth factors to generate monocyte-derived DCs. DCs were then loaded with a control (control 1 and control 2), the peptide (Agent 1, Agent 2, and Agent 3, see FIG. 8A) or left untreated. The peptides were loaded at a final concentration of 0.34 μM.
Mature antigen-loaded DCs were then co-cultured at a fixed ratio with autologous CFSE-labelled T cells in multi-well plates. Each test condition was set up in eight replicate wells and cells were incubated for 7 days. At the end of the incubation period, cell samples were stained with anti-CD4 antibody, then washed and fixed for by flow cytometric analysis. Proliferation was determined by measuring a decrease in CFSE intensity.
Data were compiled to determine antigen-induced proliferation per individual donor, calculated as Percentage Stimulation above Background. The frequency of positive donor cell responses (Percentage Antigenicity) was calculated as the proportion of responding donors out of total donors. Values were then standardized against the strength of response (an average of the Percentage Stimulation value obtained across accepted donors for each protein) to give a response index (RI).
Data obtained by flow cytometric evaluation of cell samples was analyzed using FlowJo Software (Tree Star, Inc.). The number of CFSE-dim (i.e., proliferating) cells was determined for each sample in eight replicate wells. Counts for the CD4^+ CFSE dim population in each sample were expressed as a proportion of the total CD4^+ population. The eight replicate values were then used to calculate Percentage Stimulation above Background (proportion of CD4^+ CFSE dim cells with antigen stimulation minus the proportion of CD4^+ CFSE dim cells without antigen stimulation).
Background threshold values are based on data from unstimulated cells for which a maximum acceptable resting proliferation threshold is established.
In evaluating antigenicity, it is also appropriate to take account of the frequency of donor cell responses across the study cohort. A positive response (Percentage Stimulation above Background ≥0.5%) in 2 or more independent donor samples is considered indicative of a potential T cell epitope.
Depending on the size of the study, (20, 40 or 50 donors), two responding donors sets a threshold of 10%, 5% or 4% respectively. Thus, following calculation of Percentage Stimulation above Background, the frequency of positive donor cell responses (Percentage Antigenicity) is expressed as the proportion of responding donors out of total accepted donors screened.
When calculating the antigenicity of a protein it is important to consider the strength of a response as well as the frequency of that response. This is because some binding responses may be pan-allele, but these responses may not be very strong. The strength of positive donor cell responses was determined by taking an average of the percentage stimulation value obtained across accepted donors for each protein. Determining a Response Index (RI) through the multiplication of strength and frequency values is more representative of the level of antigenicity.

FIG. 10B = details: rat, in vivo, iv, 10 mg/kg
Protocol: Table printed on a drawing sheet, FIG. 10B
The patent's description of the figure: FIGS. 10A-10C. Pharmacokinetic profile and parameter for peptides after intravenous administration. FIG. 10A) Mouse PK data (10 mg/kg, bolus IV, n=3 per timepoint). FIG. 10B) Rat PK data (10 mg/kg, bolus IV, n=3 per timepoint). FIG. 10C) Non-human primate (NHP) PK data (4 mg/kg, 30 min IV infusion, n=3). Error bars represent the standard deviation (SD).
First reader's note: Rat PK parameters; the plot legend on the same sheet gives 10 mg/kg (IV) for both agents, and the top-left cell 'PK parameters / rat' spans the first two rows.

## CC[C@H](C)[C@H](NC(=O)[C@H](CC(N)=O)NC(=O)[C@H](CCCCN)NC(=O)[C@H](C)NC(=O)[C@H](CCCCN)NC(=O)[C@H](CCCCN)NC(=O)COCCOCCNC(=O)COCCOCCNC(=O)CCCCCCCCCCCCCCC(=O)O)C(=O)N[C@H](C(=O)N[C@@H](CC(C)C)C(=O)N[C@@H](CC(C)C)C(=O)N[C@@H](CCCCN)C(=O)NCC(=O)N[C@@H](CC(C)C)C(=O)N[C@@H](CCC(=O)O)C(=O)N[C@H](C(=O)N[C@H](C(=O)N[C@@H](CC(N)=O)C(=O)N[C@@H](CC(=O)O)C(=O)N[C@@H](Cc1c[nH]c2ccccc12)C(=O)N[C@@H](Cc1c[nH]cn1)C(=O)N[C@@H](Cc1ccccc1)C(=O)N[C@H]1CSSC[C@@H](C(N)=O)NC(=O)[C@@H](CCCNC(=N)N)NC(=O)[C@H](CCCNC(=N)N)NC(=O)[C@@H](CCCCN)NC(=O)[C@H](CCCCN)NC(=O)[C@@H](CCCNC(=N)N)NC(=O)CNC(=O)[C@@H](CCCNC(=N)N)NC(=O)[C@H](CCCNC(=N)N)NC(=O)[C@@H](CCCNC(=N)N)NC1=O)[C@@H](C)CC)C(C)C)C(C)C [Agent 1] ({C16 diacid-AEEA-AEEA}-KKAKNIVLLKGLEVINDWHFC[dR]R[dR]G[dR]K[dK]R[dR]C-NH2; disulfide 21-31)
[1]
  metabolic stability in fresh blood (half-life) compared to Agent 2 and Agent 3: better stability; also recorded: considerably reduces the metabolism
CD4+ T cells
  Response Index (RI): 0.294
  percentage antigenicity: 22.73%
FIG. 10B
  C0: 72.7 µg/mL
